Two compounds from patent US9279105B2, “Enrichment of stem cells from adult tissues” (Board of Supervisors of Louisiana State University And …, priority 2009, dated 2016) can be followed below.

Molecules are shown by their SMILES.

Holding throughout (format): cell-based, rat
In assay [1] the test system is DFSCs. The assay is described as follows: Adipogenesis differentiation of cells surviving DOX, Oil Red O staining. To be noted: cells that survived DOX for 4 hours; untreated control DFSCs formed only a few adipocytes. The protocol: To determine the differentiation capabilities of the putative stem cells, DFSCs were subjected to various differentiation procedures. For osteogenesis, cells were cultured for 2 weeks in medium consisting of DMEM-LG, 10% FBS, 50 μg/ml ascorbate-2 phosphate, 10^−8 M dexamethasone, and 10 mM β-glycerophosphate […] as previously described, followed by von Kossa and Alizarin Red staining to assess for mineral deposition (as described in Hung et al., 2002). For adipogenesis, DFSCs were cultured for 2 weeks in medium consisting of DMEM-LG, 10% FBS (Invitrogen Corporation, Carlsbad, Calif., USA), 50 μg/ml ascorbate-2 phosphate (Sigma-Aldrich), 10^−7 M dexamethasone, and 50 μg/ml indomethacin, with a medium change every 3 days (Hung et al., 2002). The cells then were stained with Oil red O to evaluate adipogenesis.
In another experiment to determine to enrich the populations of stem cells, DFSCs were treated with doxorubicin (DOX), a substrate of BCRP, at concentrations of 0.5, 1 or 2 μM for 1, 2, 4 and 6 hrs. The cells were incubated at 37° C. for the designated duration. […] The number of viable cells was counted in 5 to 10 randomly selected spots (1 mm^2 each) for calculation of the survival rate as the ratio of treatment/control. […]

The subject of assay [2] is DFSCs. The experiment in a line: Doxorubicin treatment of DFSCs, count of viable cells (survival rate). To be noted: DOX 1 μM, incubation increased from 2 to 4 to 6 hours, compared to control without DOX; FIG. 2. The protocol:
(§1) Establishment of cell cultures from rat dental follicle: Dental follicles (DF) were surgically removed from the first mandibular molars of Sprague Dawley rat pups at days 5-7 postnatally, and the isolated DF cells then suspended in MEM medium containing 10% newborn calf serum (NCS), 1 mM sodium pyruvate and antibiotics as previously described (Wise et al., 1992). Next, 5 ml of the cell suspension was transferred into a T-25 cell culture flask and incubated overnight to allow the cells to adhere. […]
In another experiment to determine to enrich the populations of stem cells, DFSCs were treated with doxorubicin (DOX), a substrate of BCRP, at concentrations of 0.5, 1 or 2 μM for 1, 2, 4 and 6 hrs. […] The number of viable cells was counted in 5 to 10 randomly selected spots (1 mm^2 each) for calculation of the survival rate as the ratio of treatment/control. […]

Assay [3] relates to DFSCs. The experiment in a line: 4-HC treatment of DFSCs for elimination of non-stem cells. The note with it: 5-25 μM tested, 48 hours at 37° C., α-MEM with 20% FBS. The method, then: as §1
We also tested an ALDH substrate, 4-hydroperoxycyclophosphamide (4-HC), for elimination of non-stem cells in culture. […] Putative stem cells surviving from a 4-HC treatment expressed a high level of multiple stem cell markers, including Abcb1, Prom1, Notch 1, and CD34, as determined by RT-PCR and western blotting. On the average, about a 2 to 4-fold increase in expression of these markers was detected in the 4-HC surviving cells as compared to the original population.

The test system of assay [4] is DFSCs. The experiment in a line: Proliferation of cells surviving 4-HC treatment (flow cytometry analysis). On the technique in general: A flow cytometer gives signals particle by particle.
The subject of assay [5] is dental follicle cells (DFCs; non-stem cells). The assay is described as follows: 4-HC treatment of dental follicle cells (non-stem cells). To be noted: same 4-HC treatment protocol applied to DFCs.
Assay [6] concerns Abcb1, Prom1, Notch 1, and CD34. The assay is described as follows: Stem cell marker expression in 4-HC surviving cells by RT-PCR and western blotting. To be noted: 4-HC surviving cells compared to the original population; on the average. The method, then:
We also tested an ALDH substrate, 4-hydroperoxycyclophosphamide (4-HC), for elimination of non-stem cells in culture. DFSCs were cultured as described above and then treated with 4-HC at the concentrations of 5, 10, 15, 20 and 25 μM in α-MEM medium containing 20% FBS for 48 hours at 37° C. The majority of the cells were killed at a 4-HC concentration greater than 15 μM. The surviving cells then were collected and subjected to cell proliferation, differentiation, and gene expression assays as described above for evaluation of stem cell properties. Putative stem cells surviving from a 4-HC treatment expressed a high level of multiple stem cell markers, including Abcb1, Prom1, Notch 1, and CD34, as determined by RT-PCR and western blotting. On the average, about a 2 to 4-fold increase in expression of these markers was detected in the 4-HC surviving cells as compared to the original population.

For the compound `COc1cccc2c1C(=O)c1c(O)c3c(c(O)c1C2=O)C[C@@](O)(C(=O)CO)C[C@@H]3O[C@H]1C[C@H](N)[C@H](O)[C@H](C)O1` [DOX, doxorubicin], the “adipocyte formation of surviving cells in adipogenesis induction medium” value in the assay on DFSCs [1] was “majority of the cells forming Oil Red O positive adipocytes”. For the same compound, in the assay with DFSCs [2], the “number of surviving cells” value was “decreasing”.
Take `O=P1(N(CCCl)CCCl)NC(OO)CCO1` (stereo not shown) [4-HC, 4-hydroperoxycyclophosphamide]: the “4-HC concentration at which the majority of the cells were killed” value in the assay on DFSCs [3] is on record as “greater than 15 μM”. The “proliferation rate of putative stem cells surviving 4-HC” value with DFSCs [4] (flow cytometry, compared to original cell population not subjected to 4-HC) is “higher proliferation rate”. Further, in the assay with DFSCs [4] (surviving cells), the “effect of 4-HC treatment on proliferation of the cells” value is “did not adversely affect”. Besides, the survival of cells entry in assay [5] is recorded as “none of them survived”. Further, the “increase in expression of stem cell markers” value in assay [6] was in the range of 2 to 4 fold.
